This passage reports AC50 results from PubChem BioAssay AID1035473 (Broad Institute, 2014).

The subject of the experiment is A549 viability, CellTiter-Glo ATP luminescence, 72 h. Put plainly: A549 cell cytotoxicity, dose response, cytotoxicity control, dry powder samples (AID 1035473).

What is called AC50 is the concentration at which the activity in the assay is half-maximal. Take `Cn1c(NC(=O)c2ccccc2)nc2c3cnccc3ccc21`: the AC50 is 83.9 µM.
